Data set [1] in a line: physchem.
Data set [2] is described as follows: in vitro. The note with it: human, Caco-2, pH 7.4, Papp.
Data set [3] can be described thus: physchem. This is another data set of the same source.
The nature of data set [4]: in vivo. The note with it: C57BL/6, mouse, brain and plasma, iv.
Data set [5] can be described thus: in vivo. The settings on record: C57BL/6, mouse, brain, iv.
Data set [6] can be described thus: in vivo. The note with it: C57BL/6, mouse, plasma, iv.
A short description of data set [7]: in vivo. The settings on record: C57BL/6, mouse, brain and plasma, iv. The source holds these as a separate data set.
Data set [8] is described as follows: in vivo. The note with it: C57BL/6, mouse, brain and plasma, po.
Data set [9] in a line: in vivo. The note with it: C57BL/6, mouse, brain, po.
The nature of data set [10]: in vivo. The settings on record: C57BL/6, mouse, brain and plasma, po. This is another data set of the same source.
The nature of data set [11]: in vivo. The note with it: C57BL/6, mouse, plasma, po.

The text below walks through data of ChEMBL document CHEMBL2380236, “Core refinement toward permeable β-secretase (BACE-1) inhibitors with low hERG activity” (J Med Chem, 2013).

SMILES strings stand for the structures.

`CC1(c2cccc(-c3cccnc3)c2)N=C(N)c2ccccc2O1` (stereo not given) gave a chromatographic logD in [1] of 1.8. Moreover, the Papp A→B at 10 µM in data set [2] is 17 ×10⁻⁶ cm/s. This molecule also gave a pKa in data set [3] of 8.2.

The molecule `CCC1(c2cccc(-c3cncnc3)c2)N=C(N)c2ccccc2O1` (stereo not given) displayed a chromatographic logD in data set [1] of 1.8. Also, the pKa in data set [3] was found to be 8.4.

Molecule `CC1(c2cccc(-c3cncnc3)c2)N=C(N)c2c(F)cccc2O1` (stereo not given) showed a chromatographic logD in data set [1] of 1.6. Also, in data set [2], the Papp A→B at 10 µM was found to be 39 ×10⁻⁶ cm/s. In data set [3], this molecule returned a pKa of 6.9.

For `CC1(c2cccc(-c3cccnc3)c2)N=C(N)c2c(F)cccc2O1` (stereo not given), the chromatographic logD in data set [1] was 2.3. Further, the Papp A→B at 10 µM in [2] was determined as 23 ×10⁻⁶ cm/s. Also, in data set [3], the pKa worked out at 7.

In data set [1], `CC1(c2cccc(-c3cncnc3)c2)N=C(N)c2ccccc2S1` (stereo not given) gave a chromatographic logD of 1.7. Moreover, the Papp A→B at 10 µM in [2] amounted to 39 ×10⁻⁶ cm/s. Moreover, in data set [3], the pKa was 8.3.

Consider `COc1cccc(-c2cccc(C3(C)N=C(N)CCO3)c2)c1` (stereo not given), for which, in data set [1], the chromatographic logD is 2.5. Further, the Papp A→B at 10 µM in [2] came to 13 ×10⁻⁶ cm/s. For the same molecule, the pKa in data set [3] came out at 9.3.

Turning to `CC1(c2cccc(-c3cccc(Cl)c3)c2)N=C(N)CCO1` (stereo not given), the chromatographic logD in data set [1] worked out at 3.3. In addition, in data set [2], the Papp A→B at 10 µM was determined as 2.1 ×10⁻⁶ cm/s. Further, the pKa in data set [3] amounted to 9.3.

`CC1(c2cccc(-c3cncnc3)c2)N=C(N)CCS1` (stereo not given) registered a Kp uu at […] in data set [4] of 0.27. The chromatographic logD in [1] was less than 0. In addition, the fraction unbound at […] was 0.074 in data set [5] and 0.89 in data set [6]. Also, the Kp at […] in [7] is 1.4. In data set [2], this molecule had a Papp A→B at 10 µM of 21 ×10⁻⁶ cm/s. In addition, in data set [3], the pKa came out at 9.1.

`COc1cccc(-c2cccc(C3(C)N=C(N)CCS3)c2)c1` (stereo not given): in data set [1], the chromatographic logD was 2.5. The Papp A→B at 10 µM in data set [2] turned out to be 5.2 ×10⁻⁶ cm/s. Further, the pKa in data set [3] is 9.3.

In turn, `COc1cccc(-c2cccc(C3(C)COCC(N)=N3)c2)c1` (stereo not given) showed a chromatographic logD in [1] of 2.1. This molecule yielded a Papp A→B at 10 µM in [2] of 20 ×10⁻⁶ cm/s. In data set [3], this molecule returned a pKa of 9.8.

In data set [3], `COc1cccc(-c2cccc(C3(C)CSCC(N)=N3)c2)c1` (stereo not given) returned a pKa of 10.5.

`COc1cccc(-c2cccc(C3(C)CCSC(N)=N3)c2)c1` (stereo not given): in data set [8], the Kp at […] amounted to 8.9. In [1], this molecule gave a chromatographic logD of 2.5. Further, the fraction unbound at […] in data set [9] worked out at 0.005; in data set [11] it was 0.07. The molecule also came in with an apical-to-basolateral permeability (Papp A→B) at 10 µM in data set [2] of 72 ×10⁻⁶ cm/s. Further, the Kp uu at […] in data set [10] is 0.64. Moreover, in data set [3], the pKa came out at 7.

The molecule `COc1ccc(C2(c3cccc(-c4cncnc4)c3)N=C(N)c3nc(C)sc32)cc1` (stereo not given) displayed a Kp at […] in data set [8] of 0.2. Moreover, the chromatographic logD in data set [1] is 2. Moreover, the figures for the fraction unbound at […] in data set [9] and in data set [11] were 0.02 and 0.1, respectively. Moreover, the apical-to-basolateral permeability (Papp A→B) at 10 µM in data set [2] was 18 ×10⁻⁶ cm/s. The molecule further had a Kp uu at […] in [10] of 0.04. The molecule further gave a pKa in [3] of 8.

As to `COc1ccc(C2(c3cccc(-c4cncnc4)c3)N=C(N)n3nc(C)cc32)cc1` (stereo not given), the chromatographic logD in data set [1] is 2.3. The molecule also displayed a Papp A→B at 10 µM in data set [2] of 30 ×10⁻⁶ cm/s. Besides, in data set [3], the pKa is 5.4.

For the molecule `COc1cccc(-c2cccc(C3(C)N=C(N)CS3)c2)c1` (stereo not given), the chromatographic logD in [1] came out at 3.6. Besides, the Papp A→B at 10 µM in data set [2] amounted to 15 ×10⁻⁶ cm/s. Also, the pKa in data set [3] stood at 6.9.

Molecule `COc1ccc(C2(c3cccc(-c4cccnc4)c3)N=C(N)CS2)cc1` (stereo not given) had a Kp uu at […] in data set [4] of 1.3. The molecule also returned a chromatographic logD in data set [1] of 2.9. For the same molecule, the fraction unbound at […] in data set [5] is 0.01; in data set [6], 0.007. Moreover, the Kp at […] in data set [7] was 0.9. For the same molecule, the Papp A→B at 10 µM in data set [2] came to 19 ×10⁻⁶ cm/s. In [3], this molecule returned a pKa of 6.2.

Turning to `COc1cccc(-c2cccc(C3(c4ccncc4)N=C(N)CS3)c2)c1` (stereo not given), in data set [3], the pKa was determined as 5.4.

The molecule `COc1cccc(-c2cccc(C3(C)N=C(N)CN3C(C)=O)c2)c1` (stereo not given) returned a chromatographic logD in data set [1] of 1.4. Moreover, the Papp A→B at 10 µM in data set [2] turned out to be 16 ×10⁻⁶ cm/s. The same molecule had a pKa in data set [3] of 6.5.

Consider `COc1ccc(C2(c3cccc(-c4cncnc4)c3)CCC(N)=N2)cc1` (stereo not given), for which the chromatographic logD in data set [1] is 0.9. For the same molecule, in data set [2], the Papp A→B at 10 µM was less than 0.3 ×10⁻⁶ cm/s. The pKa in data set [3] worked out at 10.

For the molecule `CC1(c2cccc(-c3cncnc3)c2)N=C(N)c2ccccc2O1` (stereo not given), the chromatographic logD in [1] was determined as 1.2. This molecule also showed a Papp A→B at 10 µM in data set [2] of 31 ×10⁻⁶ cm/s. For the same molecule, in [3], the pKa is 8.1.

For the molecule `C[C@]1(c2cccc(-c3cncc(F)c3)c2)N=C(N)[C@@H]2CCCCN21` (relative stereo), in data set [1], the chromatographic logD turned out to be 1.5.

The molecule `C[C@]1(c2cccc(-c3cncc(F)c3)c2)N=C(N)[C@H]2CCCCN21` (relative stereo) had a chromatographic logD in data set [1] of 2. In addition, the pKa in data set [3] was found to be 9.2.

`COc1ccc(C2(c3cccc(-c4cccnc4)c3)CC(OC)C(N)=N2)cc1` (stereo in doubt; form 4) registered a chromatographic logD in [1] of 1.8.
